Laboratory results taken from ChEMBL document CHEMBL5053494, “Novel halogenated arylvinyl-1,2,4 trioxanes as potent antiplasmodial as well as anticancer agents: Synthesis, bioevaluation, structure-activity relationship and in-silico studies” (Eur J Med Chem, 2021).
The source made the active and inactive calls. The calls are words filed in the database; no cut-off is given here.

Tests used:
[1] = test system: Plasmodium falciparum; experiment: Antiplasmodial activity against chloroquine-resistant Plasmodium falciparum INDO assessed as growth inhibition by SYBER green 1 dye based fluorescence assay; type: functional, organism-based
[2] = test system: A549; experiment: Anticancer activity against human A549 cells assessed as cell growth inhibition measured for 72 hrs by MTT assay; type: functional, cell-based; conditions: A549, 72 h
[3] = test system: HepG2; experiment: Anticancer activity against human HepG2 cells assessed as cell growth inhibition measured for 72 hrs by MTT assay; type: functional, cell-based; conditions: HepG2, 72 h
[4] = test system: BEAS-2B; experiment: Anticancer activity against human BEAS-2B cells assessed as cell growth inhibition measured for 72 hrs by MTT assay; type: functional, cell-based
[5] = test system: L02; experiment: Anticancer activity against human L02 cells assessed as cell growth inhibition measured for 72 hrs by MTT assay; type: functional, cell-based; conditions: L02, 72 h
[6] = Selectivity ratio of IC50 for anticancer activity against human BEAS-2B cells to IC50 for anticancer activity against human A549 cells; type: toxicity, cell-based; conditions: BEAS-2B cells versus A549 cells, read-out: Ratio IC50
[7] = Selectivity ratio of IC50 for anticancer activity against human L02 cells to IC50 for anticancer activity against human HepG2 cells; type: toxicity, cell-based; conditions: L02 cells versus HepG2 cells, read-out: Ratio IC50
[8] = test system: Plasmodium falciparum; experiment: Antiplasmodial activity against artemisinin-resistant Plasmodium falciparum Cam 3.1 R539 assessed as growth inhibition by SYBER green 1 dye based fluorescence assay; type: functional, organism-based
[9] = test system: Plasmodium falciparum; experiment: Resistance index, ratio of IC50 for antiplasmodial activity against artemisinin-resistant Plasmodium falciparum Cam 3.1 R539 to IC50 for antiplasmodial activity against chloroquine-resistant Plasmodium falciparum INDO; type: functional
[10] = Cytotoxicity against human HEK293 cells assessed as cell viability measured for 24 hrs by MTT assay; type: cell-based
[11] = Selectivity index, ratio of CC50 for human HEK293 cells to IC50 for antiplasmodial activity against chloroquine-resistant Plasmodium falciparum INDO; type: toxicity; conditions: HEK293 cells versus Plasmodium falciparum INDO
[12] = test system: Plasmodium berghei; experiment: Antimalarial activity against Plasmodium berghei ANKA infected in Balb/c mouse assessed as suppression of parasitemia at 50 mg/kg, ip administered for 4 days by microscopic analysis; type: functional; conditions: time 4 day
[13] = test system: Plasmodium berghei; experiment: Antimalarial activity against Plasmodium berghei ANKA infected in Balb/c mouse assessed as suppression of parasitemia at 50 mg/kg, po administered for 4 days by microscopic analysis; type: functional; conditions: time 4 day
[14] = test system: Plasmodium falciparum; experiment: Antiplasmodial activity against ring stage chloroquine-resistant Plasmodium falciparum INDO assessed as percentage survival at 70 nM for 6 hrs by ring stage survival assay; type: functional, organism-based
[15] = test system: Plasmodium falciparum; experiment: Antiplasmodial activity against ring stage chloroquine-resistant Plasmodium falciparum Cam 3.1 R539 assessed as percentage survival at 70 nM for 6 hrs by ring stage survival assay; type: functional
[16] = test system: Plasmodium falciparum; experiment: Antiplasmodial activity against ring stage chloroquine resistant Plasmodium falciparum INDO assessed as percentage survival at 700 nM for 6 hrs by ring stage survival assay; type: functional
[17] = test system: Plasmodium falciparum; experiment: Antiplasmodial activity against ring stage chloroquine-resistant Plasmodium falciparum Cam 3.1 R539 assessed as percentage survival at 700 nM for 6 hrs by ring stage survival assay relative to control; type: functional

| Structure (SMILES) | IC50 [1] | IC50 [2] | IC50 [3] | IC50 [4] | IC50 [5] | selectivity ratio [6] | selectivity ratio [7] | IC50 [8] | Ratio IC50 [9] | CC50 at 24 h [10] | selectivity ratio [11] | Activity [12] | Activity [13] | Activity [14] | Activity [15] | Activity [16] | Activity [17] |
| --- | --- | --- | --- | --- | --- | --- | --- | --- | --- | --- | --- | --- | --- | --- | --- | --- | --- |
| C=C(c1ccc(Cl)c(Cl)c1Cl)C1COC(C)(C)OO1 (stereo not drawn) | > 0.1 µM | 52.1 µM | 27.3 µM | 10.2 µM | 18.1 µM | 0.19 | 0.14 |  |  |  |  |  |  |  |  |  |  |
| C=C(c1ccc(Cl)c(Cl)c1)C1COC2(OO1)C1CC3CC(C1)CC2C3 (stereo not drawn) | 0.0224 µM | 2.93 µM | 34.3 µM | 26.7 µM | 3.36 µM | 9.11 | 0.5 | 0.05 µM | 2.24 | 13.2 µM | 599 |  |  |  |  |  |  |
| CCN(CC)CCCC(C)Nc1ccnc2cc(Cl)ccc12 (stereo not drawn) [CHLOROQUINE] |  | 100 µM | 49 µM | 3.07 µM | 15 µM |  |  |  |  |  |  | 100% | 100% |  |  |  |  |
| C=C(c1ccc(Cl)cc1Cl)C1COC(C)(C)OO1 (stereo not drawn) | > 0.1 µM | 92.6 µM | 90.5 µM | 68.6 µM | 37.7 µM | 0.74 | 0.16 |  |  |  |  |  |  |  |  |  |  |
| C=C(c1ccc(Cl)c(Cl)c1Cl)C1COC2(OO1)C1CC3CC(C1)CC2C3 (stereo not drawn) | 0.0421 µM | 15 µM | 34.4 µM | 17.6 µM | 6.56 µM | 1.17 | 0.66 |  |  | 75.8 µM | 1810 |  |  |  |  |  |  |
| C=C(c1ccc(OC)c(F)c1)C1COC2(CCCCC2)OO1 (stereo not drawn) | > 0.1 µM | 6.53 µM | 13.1 µM | 37.7 µM | 15.4 µM | 5.77 | 1.17 |  |  |  |  |  |  |  |  |  |  |
| C=C(c1ccc(F)c(F)c1)C1COC2(CCCC2)OO1 (stereo not drawn) | 0.0266 µM | 11.7 µM | 38.6 µM | 73.6 µM | 8.84 µM | 7.76 | 0.36 | 0.196 µM | 7.36 | 23.3 µM | 895 |  |  |  |  |  |  |
| C=C(c1cc(Cl)cc(Cl)c1OCc1ccccc1)C1COC2(OO1)C1CC3CC(C1)CC2C3 (stereo not drawn) | 0.0224 µM | 31.6 µM | > 100 µM | > 100 µM | > 100 µM |  | 1.62 | 0.043 µM | 1.93 | 60.9 µM | 2770 |  |  |  |  |  |  |
| C=C(c1ccc(F)c(F)c1)C1COC2(CCCCC2)OO1 (stereo not drawn) | > 0.1 µM | 7.88 µM | 28.6 µM | 61.2 µM | 16.5 µM | 1.26 | 0.22 |  |  |  |  |  |  |  |  |  |  |
| C=C(c1ccc(Cl)c(Cl)c1)C1COC2(CCCCC2)OO1 (stereo not drawn) | > 0.1 µM | 12.8 µM | 83.5 µM | 39.4 µM | 83.5 µM | 3.07 | 2.37 |  |  |  |  |  |  |  |  |  |  |
| C=C(c1ccc(Cl)c(Cl)c1)C1COC(C)(C)OO1 (stereo not drawn) | > 0.1 µM | > 100 µM | > 100 µM | > 100 µM | 50.9 µM |  |  |  |  |  |  |  |  |  |  |  |  |
| C=C(c1ccc(F)cc1F)C1COC2(OO1)C1CC3CC(C1)CC2C3 (stereo not drawn) | > 0.1 µM | 4.43 µM | 65.6 µM | 46.4 µM | 10.9 µM | 10.5 | 0.16 |  |  |  |  |  |  |  |  |  |  |
| C[C@@H]1CC[C@H]2[C@@H](C)C(=O)O[C@@H]3O[C@@]4(C)CC[C@@H]1[C@]32OO4 [ARTEMISININ] | 0.0066 µM | 9.85 µM | 4.09 µM | 7.53 µM | 8.25 µM | 0.76 | 2.01 | 0.0135 µM | 2.05 | > 26 µM | 4330 |  |  | inactive | 50% | 10% | 20% |
| C=C(c1ccc(Cl)cc1Cl)C1COC2(OO1)C1CC3CC(C1)CC2C3 (stereo not drawn) | 0.0154 µM | 9.92 µM | 17.2 µM | 10.2 µM | 12.5 µM | 1.02 | 0.41 | 0.0462 µM | 2.99 | 14.8 µM | 989 |  |  |  |  |  |  |
| C=C(c1ccc(F)c(F)c1)C1COC(C)(C)OO1 (stereo not drawn) | > 0.1 µM | > 100 µM | > 100 µM | > 100 µM | > 100 µM |  |  |  |  |  |  |  |  |  |  |  |  |
| CC(=O)O[C@H]1C(=O)[C@@]2(C)[C@H]([C@H](OC(=O)c3ccccc3)[C@]3(O)C[C@H](OC(=O)[C@H](O)[C@@H](NC(=O)c4ccccc4)c4ccccc4)C(C)=C1C3(C)C)[C@]1(OC(C)=O)CO[C@@H]1C[C@@H]2O [PACLITAXEL] |  |  | 0.19 µM | < 0.1 µM | < 0.1 µM |  |  |  |  |  |  |  |  |  |  |  |  |
| C=C(c1cc(Cl)cc(Cl)c1OCc1ccccc1)C1COC2(CCCCC2)OO1 (stereo not drawn) | > 0.1 µM | > 100 µM | > 100 µM | > 100 µM | > 100 µM |  |  |  |  |  |  |  |  |  |  |  |  |
| C=C(c1ccc(F)c(F)c1)C1COC2(OO1)C1CC3CC(C1)CC2C3 (stereo not drawn) | 0.0123 µM | 4.97 µM | 26.1 µM | 57.1 µM | 9.48 µM | 6.29 | 0.48 | 0.0414 µM | 3.39 | 12.6 µM | 1050 |  |  |  |  |  |  |
| C=C(c1ccc(OC)c(F)c1)C1COC(C)(C)OO1 (stereo not drawn) | > 0.1 µM | 100 µM | > 100 µM | 68.7 µM | > 100 µM |  | 0.37 |  |  |  |  |  |  |  |  |  |  |
| C=C(c1ccc(F)cc1F)C1COC(C)(C)OO1 (stereo not drawn) | > 0.1 µM | > 100 µM | > 100 µM | > 100 µM | > 100 µM |  |  |  |  |  |  |  |  |  |  |  |  |
| C=C(c1ccc(F)cc1F)C1COC2(CCCC2)OO1 (stereo not drawn) | > 0.1 µM | 5.09 µM | 15.4 µM | 62.6 µM | 17.6 µM | 12.3 | 1.14 |  |  |  |  |  |  |  |  |  |  |
| C=C(c1cc(Cl)cc(Cl)c1OCc1ccccc1)C1COC2(CCCC2)OO1 (stereo not drawn) | 0.0316 µM | 2.07 µM | 13.7 µM | 28.6 µM | 65.6 µM | 0.43 | 0.19 |  |  | 2.26 µM | 72.9 |  |  |  |  |  |  |
| C=C(c1ccc(F)cc1F)C1COC2(CCCCC2)OO1 (stereo not drawn) | > 0.1 µM | > 100 µM | 36 µM | 49.7 µM | 17.6 µM | 11.5 |  |  |  |  |  |  |  |  |  |  |  |
| C=C(c1cc(Cl)cc(Cl)c1OCc1ccccc1)C1COC(C)(C)OO1 (stereo not drawn) | 0.04 µM | 58.4 µM | 39.5 µM | 25.5 µM | 64.1 µM | 3.16 | 4.78 | 0.0173 µM | 0.44 | 31.6 µM | 811 |  |  |  |  |  |  |
| C=C(c1ccc(Cl)c(Cl)c1Cl)C1COC2(CCCCC2)OO1 (stereo not drawn) | > 0.1 µM | 1.37 µM | 9.02 µM | 10.3 µM | 1.22 µM | 7.51 | 0.72 |  |  |  |  |  |  |  |  |  |  |
| C=C(c1ccc(Cl)c(Cl)c1)C1COC2(CCCC2)OO1 (stereo not drawn) | > 0.1 µM | 4.68 µM | 62.6 µM | 50.9 µM | 8.45 µM | 10.9 | 0.13 |  |  |  |  |  |  |  |  |  |  |
| C=C(c1ccc(OC)c(F)c1)C1COC2(CCCC2)OO1 (stereo not drawn) | 0.0111 µM | 9.7 µM | 29.3 µM | 55.8 µM | 18.5 µM | 5.75 | 0.63 | 0.0864 µM | 7.8 | 33 µM | 3000 |  |  |  |  |  |  |
